Test results as given in patent publication US12060334B2, “3-substituted phenazine derivatives as antimicrobial agents” (University of Florida Research Foundation, Incorporated, priority 2021, dated 2024).
Values after ≈ are worked out from the molar mass of the structure shown. Where two headings read alike, the source gives them in different places. Marks after values point to notes of the source that are not given here.

Tests used:
[1] = pKa determination by UV-vis spectroscopy; type: physicochemical; conditions: UV-vis, 1:1 water:methanol phosphate buffers
Procedure: (c) pKa determination of select HP analogues.^36 Dissociation constants (pKa) for select HP analogues were determined using UV-vis spectroscopy and the Henderson-Hasselbalch equation. Buffers were prepared using potassium phosphate monobasic (KH2PO4) and sodium phosphate dibasic ([…]) in a 1:1 solution of water:methanol to achieve a pH range of 4.07 to 9.66 (ammonium hydroxide was added to prepare buffer pH over 9.80). Compounds were added from 10 mM stock solutions in dimethyl sulfoxide (25 μL) to 1975 μL of each buffer to each evaluate analogue to yield a final compound concentration of 125 μM. Full spectral scans were performed from 200 to 800 nm in 2 nm increments to determine λmax values for the protonated phenol (HA) and the deprotonated phenolate species (A^−). The change in absorption at each determined λmax in relation to pH was monitored in each buffer and plotted as absorbance versus pH for each species. The pKa was first estimated by determining the pH of the point of intersection of the two linear curves. The visual estimation was confirmed by plotting pH versus log [A^−/HA]. The resulting plot yielded a linear regression line with a Y-intercept corresponding to a calculated pKa value.

MRSA-1707 = assay: MIC susceptibility assay (broth microdilution); conditions: 16 h; for MIC: Staphylococcus aureus, MRSA, read-out: MIC MRSA-1707, planktonic growth inhibition, 16 h, 37° C.
Procedure: (§1) (MIC values were further supported by spectrophotometric readings at OD600). The concentration range tested for each HP compound during this study was 0.05 to 50 μM. DMSO served as our vehicle and negative control in each microdilution MIC assay. DMSO was serially diluted with a top concentration of 0.5% v/v.

MRSE 35984 = assay: MIC susceptibility assay (broth microdilution); conditions: 16 h; for MIC: Staphylococcus epidermidis, MRSE, read-out: MIC MRSE 35984
Procedure: as §1

VRE 700221 = assay: MIC susceptibility assay (broth microdilution); conditions: 16 h; for MIC: Enterococcus, VRE, read-out: MIC VRE 700221
Procedure: The concentration range tested for each HP compound during this study was 0.05 to 50 μM. DMSO served as our vehicle and negative control in each microdilution MIC assay. DMSO was serially diluted with a top concentration of 0.5% v/v.

E. faecalis OG1RF = assay: MIC susceptibility assay (broth microdilution); conditions: Enterococcus faecalis, 16 h, read-out: MIC E. faecalis OG1RF
Procedure: as §1

MRSA-44 = assay: MIC susceptibility assay (broth microdilution); conditions: Staphylococcus aureus, 16 h, read-out: MIC MRSA-44
Procedure: as §1

Mtb CDC1551 = assay: microbe, parasite or virus in culture; type: cell-based, Mycobacterium tuberculosis
human red blood cells = assay: Hemolysis assay with red blood cells; conditions: human RBCs, 1 hour, 37° C.
Procedure: Hemolysis assays are used to determine the membrane-lysis activity of a compound, which is of particular interest to this work as membrane-lysing agents (e.g., QACs) can eradicate biofilms.
Cytotoxicity Assay against HEK-293 Cells.^48 The viability of HEK-293 cells was assessed by the MTT assay. The cells were cultured in DMEM medium containing 10% fetal bovine serum and 100 U/mL penicillin and streptomycin. The cells (10^4 cells/well) were seeded onto a 96-well plate and maintained at 37° C. in a humidified incubator under 5% CO2 overnight. […] After incubation at 37° C. for 72 hours, 10 μL of MTT (5 mg/mL) in PBS was added to each well and incubated for 4 hours, followed by the aspiration of the medium. Dimethyl sulfoxide (DMSO, 100 μL) was then added to each well to dissolve the MTT in the wells, and the plate was agitated for 1 hour. The optical density (OD) was measured at 570 nm using a UV/vis microplate spectrophotometer (BioTek). The percent inhibition was calculated as follows: Inhibition (%)=(1−test OD570/non-treated OD570)×100%. The data were analyzed by Origin. Hemolysis Assay with Red Blood Cells. […] The washing was repeated three times with the buffer. In 96-well plate, test compounds were added to the buffer from DMSO stocks. […] The plate was then incubated for 1 hour at 37° C. After incubation, the plate was centrifuged for 5 minutes at 3,500 rpm before 80 μL of the supernatant was transferred to another 96-well plate to obtain an optical density (OD) read at 405 nm. DMSO served as the negative control (0% hemolysis) while Triton X served as the positive control (100% hemolysis) in these experiments. The percent hemolysis was calculated as (OD405 of the compound treated RBCs−OD405 DMSO control)/(OD405 Triton X treated RBCs−OD405 buffer) from three independent experiments.

MRSE 35984 biofilms = assay: Calgary Biofilm Device (CBD) assay; conditions: Staphylococcus epidermidis, MRSE, read-out: MRSE 35984 MBC
VRE 700221 biofilms = assay: Calgary Biofilm Device (CBD) assay; conditions: Enterococcus, read-out: VRE 700221 MBC
HepG2 cells = assay: Alamar Blue cytotoxicity assay, HepG2; conditions: read-out: Hep G2 Cytotox. (IC50), 24-h
J774 MΦ = assay: Alamar Blue cytotoxicity assay, J774 macrophages; conditions: read-out: J774 MΦ Cytotox. (IC50), 24-h
[2] = test system: MRSA, MRSE and VRE strains; assay: MIC assays, summary statements over several Gram-positive strains; conditions: for MIC: read-out: MIC against MRSA, MRSE and VRE strains
Procedure: as §1

MRSA-1707 biofilms = assay: Calgary Biofilm Device (CBD) assay; conditions: Staphylococcus aureus, read-out: MRSA-1707 MBC
[3] = test system: E. faecalis OG1RF biofilms; assay: Calgary Biofilm Device (CBD) assay; conditions: Enterococcus faecalis, OG1RFBIOFILMS, read-out: E.faecalis OG1RF MBC
HeLa cells = assay: LDH release assay for HeLa cytotoxicity; conditions: read-out: HeLa Cell Cytotox. (IC50), 24-h, tested at 25, 50 and 100 μM
MRSA 1 = assay: MIC assay against clinical isolate; type: cell-based, S. aureus; conditions: Staphylococcus aureus
MRSA 2 = assay: MIC assay against clinical isolate; type: cell-based, S. aureus; conditions: Staphylococcus aureus
S. aureus 129 = assay: MIC assay against clinical isolate; type: cell-based; conditions: Staphylococcus aureus
S. aureus 147 = assay: MIC assay against clinical isolate; type: cell-based
S. aureus 138 = assay: MIC assay against clinical isolate; type: cell-based; conditions: Staphylococcus aureus
S. aureus 156 = assay: MIC assay against clinical isolate; type: cell-based; conditions: Staphylococcus aureus, 156, read-out: MIC S. aureus 156
Mtb H37Ra = assay: MIC assay for Mtb H37Ra; conditions: seven days, 37° C.
[4] = Mycobacterium tuberculosis, CDC1551, 120 h
[5] = planktonic growth inhibition, 37° C.

SMILES: O=[N+]([O-])c1ccc(O)cc1 [4-nitrophenol, reference compound]
- pKa [1]: 7.52

SMILES: Oc1cc(Cl)cc2nc3ccccc3nc12 [Compound 18, 3-Chlorophenazin-1-ol]
- MIC (MRSA-1707): 25 µM (≈ 5.77 µg/mL)
- MIC (MRSE 35984): 18.8 µM (≈ 4.34 µg/mL)
- MIC (VRE 700221): > 50 µM

SMILES: Cc1ccc2nc3c(O)cc(Cl)cc3nc2c1C [Compound 20, 3-Chloro-6,7-dimethylphenazin-1-ol]
- MIC (E. faecalis OG1RF): 12.5 µM (≈ 3.23 µg/mL)

SMILES: Oc1cc(Cl)cc2nc3c(Oc4ccccc4)cccc3nc12 [Compound 22, 3-Chloro-6-phenoxyphenazin-1-ol]
- MIC (MRSA-1707): 3.13 µM (≈ 1.01 µg/mL)
- MIC (MRSA-44): 3.13 µM (≈ 1.01 µg/mL)
- MIC (MRSE 35984): 3.13 µM (≈ 1.01 µg/mL)

SMILES: Cc1ccc2nc3c(O)c(Br)c(Cl)c(Br)c3nc2c1C [Compound 30, 2,4-Dibromo-3-chloro-6,7-dimethylphenazin-1-ol]
- MIC (Mtb CDC1551; [4]): 3.62 µM (≈ 1.51 µg/mL)
- % Hemolysis at 200 μM (human red blood cells): ≤1%
- MBC (MRSE 35984 biofilms): 3.13 µM (≈ 1.3 µg/mL)
- MBC (VRE 700221 biofilms): 0.78 µM (≈ 0.325 µg/mL)
- IC50 (HepG2 cells): > 200 µM
- MIC (MRSA-44): 0.08 µM (≈ 0.0333 µg/mL)
- MIC (MRSE 35984): ≤ 0.05 µM
- MIC (E. faecalis OG1RF): 0.2 µM (≈ 0.0833 µg/mL)
- IC50 (J774 MΦ): > 200 µM
- MIC [2]: 0.05 to 0.1 µM (≈ 0.0208 to 0.0417 µg/mL)
- MICs against all Gram-positive strains in the panel ([2]; result in words): sub-micromolar

SMILES: Cc1c(Br)ccc2nc3c(O)c(Br)c(Cl)c(Br)c3nc12 [Compound 31, 2,4,7-Tribromo-3-chloro-6-methylphenazin-1-ol]
- MIC (Mtb CDC1551): 0.88 µM (≈ 0.424 µg/mL)
- MIC (Mtb CDC1551; [4]): 0.88 µM (≈ 0.424 µg/mL)
- % Hemolysis at 200 μM (human red blood cells): 27%
- MBC (MRSA-1707 biofilms): 75 µM (≈ 36.1 µg/mL)
- MBC [3]: 1.56 µM (≈ 0.751 µg/mL)
- IC50 (HepG2 cells): > 200 µM
- MIC (MRSE 35984): 0.1 µM (≈ 0.0481 µg/mL)
- MIC (VRE 700221): ≤ 0.05 µM
- MIC (E. faecalis OG1RF): 0.08 µM (≈ 0.0385 µg/mL)
- IC50 (J774 MΦ): > 200 µM

SMILES: Oc1c(Br)c(Cl)c(Br)c2nc3ccc(F)cc3nc12 [Compound 33, 2,4-Dibromo-3-chloro-8-fluorophenazin-1-ol]
- MIC (Mtb CDC1551; [4]): 1.71 µM (≈ 0.695 µg/mL)
- % Hemolysis at 200 μM (human red blood cells): ≤1%
- MBC (MRSA-1707 biofilms): 12.5 µM (≈ 5.08 µg/mL)
- MBC (MRSE 35984 biofilms): 12.5 µM (≈ 5.08 µg/mL)
- IC50 (HepG2 cells): > 200 µM
- IC50 (HeLa cells): > 25 µM
- MIC (MRSA-1707): 0.15 µM (≈ 0.061 µg/mL)
- MIC MRSA-1707 (MRSA-1707; [5]): 0.15 µM (≈ 0.061 µg/mL)
- MIC (MRSA-44): 0.2 µM (≈ 0.0813 µg/mL)
- IC50 (J774 MΦ): > 200 µM

SMILES: Oc1c(Br)c(Cl)c(Br)c2nc3ccc(I)cc3nc12 [Compound 37, 2,4-Dibromo-3-chloro-8-iodophenazin-1-ol]
- % Hemolysis at 200 μM (human red blood cells): 3.0%
- MBC (MRSA-1707 biofilms): 12.5 µM (≈ 6.43 µg/mL)
- MBC (MRSE 35984 biofilms): 6.25 µM (≈ 3.21 µg/mL)
- MBC (VRE 700221 biofilms): 4.69 µM (≈ 2.41 µg/mL)
- MIC (MRSA-1707): 0.15 µM (≈ 0.0772 µg/mL)
- MIC (MRSE 35984): 0.3 µM (≈ 0.154 µg/mL)
- MIC (E. faecalis OG1RF): 1.56 µM (≈ 0.802 µg/mL)

SMILES: CCSc1c(Br)c(O)c2nc3cccc(C)c3nc2c1Br [Compound 45, 2,4-Dibromo-3-(ethylthio)-6-methylphenazin-1-ol]
- MIC (Mtb CDC1551; [4]): 1.69 µM (≈ 0.724 µg/mL)
- MIC (MRSA 1): 0.31 µM (≈ 0.133 µg/mL)
- MIC (MRSA 2): 0.63 µM (≈ 0.27 µg/mL)
- MIC (S. aureus 129): 0.47 µM (≈ 0.201 µg/mL)
- MIC (S. aureus 147; Staphylococcus aureus, 147, clinical isolate, read-out: MIC S. aureus 147): 0.47 µM (≈ 0.201 µg/mL)
- MIC (S. aureus 138): 0.47 µM (≈ 0.201 µg/mL)
- MIC (S. aureus 156): 0.47 µM (≈ 0.201 µg/mL)
- % Hemolysis at 200 μM (human red blood cells): 5.7%
- MBC (MRSA-1707 biofilms): 50 µM (≈ 21.4 µg/mL)
- MBC (MRSE 35984 biofilms): 12.5 µM (≈ 5.35 µg/mL)
- IC50 (HepG2 cells): > 200 µM
- MIC MRSE 35984 (MRSE 35984; [5]): 0.30^a μM
- MIC (E. faecalis OG1RF): 0.78 µM (≈ 0.334 µg/mL)
- IC50 (J774 MΦ): > 100 µM

SMILES: Cc1cccc2nc3c(O)c(Br)c(SCCO)c(Br)c3nc12 [Compound 46, 2,4-Dibromo-3-((2-hydroxyethyl)thio)-6-methylphenazin-1-ol]
- MIC (MRSA-1707): 6.25 µM (≈ 2.78 µg/mL)
- MIC (MRSA-44): 6.25 µM (≈ 2.78 µg/mL)
- MIC [2]: 2.35 to 12.5 µM (≈ 1.04 to 5.55 µg/mL)

SMILES: CC(=O)NC[C@H]1CN(c2ccc(N3CCOCC3)c(F)c2)C(=O)O1 [Linezolid, reference compound]
- MBC (MRSA-1707 biofilms): 31.3 µM (≈ 10.6 µg/mL)
- MIC (MRSA-1707): 12.5 µM (≈ 4.22 µg/mL)

SMILES: [H]/N=C(/N)N[C@H]1[C@H](O)[C@@H](O)[C@H](O[C@@H]2O[C@@H](C)[C@](O)(C=O)[C@H]2O[C@@H]2O[C@@H](CO)[C@H](O)[C@@H](O)[C@@H]2NC)[C@@H](N/C(N)=N\[H])[C@@H]1O [Streptomycin, reference compound]
- MIC Mtb H37Ra (Mtb H37Ra): 1.32 µM (≈ 0.768 µg/mL)

SMILES: CN[C@H](CC(C)C)C(=O)N[C@H]1C(=O)N[C@@H](CC(N)=O)C(=O)N[C@H]2C(=O)N[C@H]3C(=O)N[C@H](C(=O)N[C@H](C(=O)O)c4cc(O)cc(O)c4-c4cc3ccc4O)[C@H](O)c3ccc(c(Cl)c3)Oc3cc2cc(c3O[C@@H]2O[C@H](CO)[C@@H](O)[C@H](O)[C@H]2O[C@H]2C[C@](C)(N)[C@H](O)[C@H](C)O2)Oc2ccc(cc2Cl)[C@H]1O [Vancomycin, reference compound]
- MIC (S. aureus 147; Staphylococcus aureus, 147, read-out: MIC S. aureus 147): 0.59 µM (≈ 0.855 µg/mL)
- MBC (MRSE 35984 biofilms): 3 µM (≈ 4.35 µg/mL)
- MBC (VRE 700221 biofilms): 750 µM (≈ 1090 µg/mL)
- MBC [3]: 11.7 µM (≈ 17 µg/mL)
- MIC (VRE 700221): > 100 µM
- MIC VRE 700221 (VRE 700221; [5]): >100 µM
